This is an account of results in patent US11850213B2, “Ophthalmic compositions of rifamycins and uses thereof” (AMD THERAPEUTICS LLC, priority 2014, dated 2023).

Each structure is given as a SMILES string. ≈ marks a conversion by molar mass, not a printed value. Where two headings read alike, the source gives them in different places.

The nature of series [1]: Solubility of AMD101 in H2O. It counts as physicochemical. The conditions noted are these: water. On the procedure: In H2O, the AMD101 can dissolve at approximately 1.4 mg/ml only. However, the concentration was increased as provided herein employing suitable excipients. Those formulations are stable for weeks.
Series [2] is described as follows: Retina exposure of rifampicin after topical eye drops (3 or 10 drops), LC/MS. Particulars: Rat, 0.25%. It counts as in vivo, Sprague-Dawley rats. How it is done: The remaining two rats received the same applications, but 10 drops, to each eye under isoflurane sedation. A single drop contained 5 micro L of the formulation, and applications of each drop had 30 min interval. After the eye drop application, retinas were extracted under a dissection microscope. In addition, “Non-treatment” negative control was taken, and retina was extracted from two rats without any treatment. Retinas were placed in a 1.5 ml microcentrifuge tubes (1 retina/tube), and they were extensively washed by DPBS. After the washing procedure, retina tissue in a microcentrifuge tube was frozen in dry ice, and it was stored for quantification by LC/MS analysis.

The nature of series [3]: Retina exposure of rifampicin after subcutaneous injection, LC/MS. It counts as in vivo, Sprague-Dawley rats. The conditions noted are these: male, Sprague-Dawley, rat, SC injection 20 mg/Kg (Example 6A), n = 4. How it is done:
At time points of 1 hr, 3 hr, and 7 hr after the SC injection, retina tissues were extracted from the rats under a dissection microscope. In addition, “Non-treatment” negative control was taken, and retina was extracted from two rats without any treatment. Retinas were placed in a 1.5 ml microcentrifuge tubes (1 retina/tube), and they were extensively washed by DPBS. After the washing procedure, retina tissue in a microcentrifuge tube was frozen in dry ice, and it was stored for quantification by LC/MS analysis. […] Amounts detected in retina by the SC injection were equivalent to those delivered by the eye drop application (See Table 3).

Series [4] is described as follows: PK study, retina exposure after 0.25% rifampicin eye drop, LC/MS. The conditions noted are these: male, Sprague-Dawley, 37.5 micro gram, rat. It counts as in vivo, Sprague-Dawley rats. How it is done:
15 microL of an eye drop formulation which is presented as Example 1A listed in Table 1 was used to dose the compound to a single eye of a rat. […] At time points of 1 hr, 3 hr, and 7 hr after the eye drop application, retina tissues were extracted from the rats under a dissection microscope. In addition, “Non-treatment” negative control was taken, and retina was extracted from a single rat without any treatment. Retinas were placed in a 1.5 ml microcentrifuge tubes (1 retina/tube), and they were extensively washed by DPBS. After the washing procedure, retina tissue in a microcentrifuge tube was frozen in dry ice, and it was stored for quantification by LC/MS analysis.

Series [5] can be described thus: Dose-response study, retina exposure after 0.25% and 0.5% rifampicin eye drops, LC/MS. It counts as in vivo, Sprague-Dawley rats. Particulars: male, Sprague-Dawley, rat, topical. How it is done:
15 microL of eye drop formulations which are presented as Example 1A and 6A listed in Table 1 and Table 2, respectively, were used to dose the compound to a single eye of a rat. […] In 1 hr after the eye drop application, retina tissues were extracted from the rats under a dissection microscope. In addition, “Non-treatment” negative control was taken, and retina was extracted from a single rat without any treatment. Retinas were placed in a 1.5 ml microcentrifuge tubes (1 retina/tube), and they were extensively washed by DPBS. After the washing procedure, retina tissue in a microcentrifuge tube was frozen in dry ice, and it was stored for quantification by LC/MS analysis.

For series [6] the following is noted: Rabbit, 0.5% 50 microL, 250 micro g, Sigurdsson et al (2007); cited from earlier work.

The solubility is the concentration that dissolves in the medium under given conditions. A high value points to much dissolved substance. A word on the Tmax: it is the time at which the peak concentration occurs. For the compound `CO[C@H]1/C=C/O[C@@]2(C)Oc3c(C)c(O)c4c(O)c(c(/C=N/N5CCN(C)CC5)c(O)c4c3C2=O)NC(=O)/C(C)=C\C=C\[C@H](C)[C@H](O)[C@@H](C)[C@@H](O)[C@@H](C)[C@H](OC(C)=O)[C@@H]1C` [Rifampicin], the solubility in series [1] is ~1400 µg/mL (≈ 1700 µM). In addition, the “Drug amount detected in retina” value was ~1,288 ng/g retina ng/g retina tissue in series [2] (3 drops (15 microL, 37.5 micro g)) and ~2,939 ng/g retina ng/g retina tissue in series [2] (10 drops (50 microL, 125 micro g)). The concentration at 1 hr worked out at 2660 ng/g in series [3] (1 hr); 1580 ng/g in series [4] (topical, 0.25% eye drop 15 microL (Example 1A), 1 hr, n = 4); 1580 ng/g in series [5] (37.5 micro gram); 6070 ng/g in series [5] (75 micro gram). Further, the concentration at 3 hr was 3860 ng/g in series [3] (3 hr) and 1150 ng/g in series [4] (topical, 0.25% eye drop 15 microL (Example 1A), 3 hr, n = 4). In addition, the concentration at 7 hr in series [3] (7 hr) was 2520 ng/g; in series [4] (topical, 0.25% eye drop 15 microL (Example 1A), 7 hr, n = 4) it was 104 ng/g. Also, the Tmax in series [4] (topical or ocular, 0.25% eye drop 15 microL) was ~1 h.
Take `C[C@@H]1C[C@H]2[C@@H]3CCC4=CC(=O)C=C[C@]4(C)[C@@]3(F)[C@@H](O)C[C@]2(C)[C@@]1(O)C(=O)CO` [Dexamethasone]: the “Drug amount detected in retina” value in series [6] is recorded as ~33 ng/g retina ng/g retina tissue.
